Measured values published in patent US20230382923A1, “FUSED TETRACYCLIC QUINAZOLINE DERIVATIVES AS INHIBITORS OF ERBB2” (EnLiven Therapeutics, Inc., priority 2021, published 2023).
Read-outs that look alike come from different tables or passages of the source.

Legend:
Ba/F3 ERBB2 YVMA = assay: Cell viability assay (CellTiter Glo, 72 hours); format: cell-based, mouse
Description: Cells were treated with compounds, and cell viability was measured as a metric of kinase inhibition.
BT-474, A431, MDA-MB-175VII, NCI-H1781, MCF7, and Ba/F3 cell lines were tested. The Ba/F3 cell line is IL-3-dependent mouse cell line derived from the C3H mouse strain. Ba/F3 cell lines were engineered to express human ERBB2 or EGFR kinases, rendering the cells IL-3 independent. The lines were generated via retroviral transduction utilizing a Moloney murine leukemia virus (MMLV) promoter, and constructs are stably integrated into the cell genome. The sequences of the ERBB2 and EGFR genes used were NCBI Reference Sequences NM_004448.3 and NM_005228.3, respectively.
BT-474, A431, MDA-MB-175VII, NCI-H1781 and MCF7 cells were grown in the appropriate growth medium as described in Table B2 below, and harvested at 50-80% confluence. BT-474, A431, MDA-MB-175VII, NCI-H1781 and MCF7 cells were counted and seeded at 2,000 or 1,500 cells per well in 384-well tissue culture plates (see Table B2). Similarly, Ba/F3 cell lines engineered to express EGFR, ERBB2, or ERBB2 mutants were grown, harvested, counted and seeded at 3000 cells per well in 96-well plates. A subset of wells contained media only (low control, “LC”).
Table B1 provides the growth media and number of cells seeded per well for the each cell line.
Compounds were dissolved in DMSO and serially diluted. Serially-diluted compound or a DMSO only control (high control, “HC”) was added to the plated cells in each well. Compounds were tested at concentrations of about 10 μM to 0.51 nM, using three-fold dilutions. The final proportion of DMSO never exceeded 0.1%.
Plates were placed in a 37° C., 5% CO2 incubator for 72 hours. Plates were then removed from the incubator and equilibrated for 15 minutes at room temperature. 40 μl of CellTiter Glo reagent (Promega) was added to measure the relative level of metabolically active cells by quantifying intracellular ATP concentrations. Plates were incubated for 30 minutes at room temperature, and luminescence was measured. Percent viability was normalized to a vehicle control only using the following formula: % viability=100×(LumSample−LumLC)/(LumHC−LumLC). Graphical curves were fitted using a nonlinear regression model with a sigmoidal dose response.

[1] = target: phosphorylated EGFR (pEGFR) (Homo sapiens (Human), UniProt P00533); assay: Detection of phosphorylated EGFR (pEGFR) by AlphaLISA in A431 cells; format: cell-based; conditions: A431 cells (10% FBS), 4 hours incubation, EGF 30 ng/mL for 10 minutes
Procedure, shortened: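 A431 cells in 10% FBS exposed to compound for 4 h at 37 °C, then stimulated 10 min with 30 ng/mL EGF. Lysates assayed for phospho-EGFR by AlphaLISA. % inhibition relative to DMSO and staurosporine controls; IC50 from four-parameter curve fit.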

[2] = target: phosphorylated ERBB2 (pERBB2) (Homo sapiens (Human), UniProt P04626); assay: Detection of phosphorylated ERBB2 (pERBB2) by ELISA in BT-474 cells; format: cell-based; conditions: four hours incubation with compound
Procedure, shortened: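 BT-474 cells were exposed to serially diluted compounds for 4 h at 37 °C, then lysed. Phospho-ERBB2 in lysates was captured by ELISA and detected with an HRP anti-phosphotyrosine antibody and TMB.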

[3] = Ba/F3 cells engineered to express human ERBB2 YVMA mutant, 72 hours, CellTiter Glo viability, read-out: Ba/F3 ERBB2 YVMA, IC50
[4] = Mus musculus, BaF3, 72 h, read-out: Ba/F3 ERBB2 YVMA, IC50, nM
[5] = Mus musculus, BaF3, 72 h, Ba/F3 cells engineered to express human ERBB2 YVMA mutant, 72 hours, CellTiter Glo viability, read-out: Ba/F3 ERBB2 YVMA, IC50

Chain of phosphorylated EGFR (pEGFR) (P00533 25-1210): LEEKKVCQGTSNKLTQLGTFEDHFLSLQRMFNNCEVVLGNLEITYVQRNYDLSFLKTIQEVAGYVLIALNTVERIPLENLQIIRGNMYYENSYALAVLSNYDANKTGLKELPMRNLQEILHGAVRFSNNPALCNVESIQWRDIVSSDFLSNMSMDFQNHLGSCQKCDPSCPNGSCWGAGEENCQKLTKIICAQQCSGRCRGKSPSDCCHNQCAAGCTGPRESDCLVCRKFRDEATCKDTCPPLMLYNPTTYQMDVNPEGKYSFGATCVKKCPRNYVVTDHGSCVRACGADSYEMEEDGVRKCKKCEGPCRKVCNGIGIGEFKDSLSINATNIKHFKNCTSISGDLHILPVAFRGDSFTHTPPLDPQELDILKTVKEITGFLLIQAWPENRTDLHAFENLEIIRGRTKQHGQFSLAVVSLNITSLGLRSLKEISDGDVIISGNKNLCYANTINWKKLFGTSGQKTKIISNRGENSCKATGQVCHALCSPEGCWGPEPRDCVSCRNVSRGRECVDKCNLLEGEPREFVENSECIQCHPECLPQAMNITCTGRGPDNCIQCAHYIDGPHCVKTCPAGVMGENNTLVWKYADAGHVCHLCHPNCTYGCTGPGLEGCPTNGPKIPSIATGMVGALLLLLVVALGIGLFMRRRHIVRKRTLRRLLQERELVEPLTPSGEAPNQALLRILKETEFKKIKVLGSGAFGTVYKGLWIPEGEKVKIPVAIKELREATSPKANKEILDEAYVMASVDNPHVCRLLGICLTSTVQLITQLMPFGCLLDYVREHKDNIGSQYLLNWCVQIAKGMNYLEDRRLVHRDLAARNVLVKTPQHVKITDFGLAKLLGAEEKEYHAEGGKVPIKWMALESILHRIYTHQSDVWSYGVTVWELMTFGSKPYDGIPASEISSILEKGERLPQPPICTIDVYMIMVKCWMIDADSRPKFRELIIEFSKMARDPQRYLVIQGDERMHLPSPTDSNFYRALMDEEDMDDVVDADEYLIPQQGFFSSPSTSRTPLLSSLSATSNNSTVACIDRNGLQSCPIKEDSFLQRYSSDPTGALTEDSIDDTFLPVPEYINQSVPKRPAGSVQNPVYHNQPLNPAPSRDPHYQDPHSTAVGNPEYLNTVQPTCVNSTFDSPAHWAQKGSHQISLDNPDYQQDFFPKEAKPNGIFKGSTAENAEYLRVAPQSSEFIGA
Chain of phosphorylated ERBB2 (pERBB2) (P04626 23-1255): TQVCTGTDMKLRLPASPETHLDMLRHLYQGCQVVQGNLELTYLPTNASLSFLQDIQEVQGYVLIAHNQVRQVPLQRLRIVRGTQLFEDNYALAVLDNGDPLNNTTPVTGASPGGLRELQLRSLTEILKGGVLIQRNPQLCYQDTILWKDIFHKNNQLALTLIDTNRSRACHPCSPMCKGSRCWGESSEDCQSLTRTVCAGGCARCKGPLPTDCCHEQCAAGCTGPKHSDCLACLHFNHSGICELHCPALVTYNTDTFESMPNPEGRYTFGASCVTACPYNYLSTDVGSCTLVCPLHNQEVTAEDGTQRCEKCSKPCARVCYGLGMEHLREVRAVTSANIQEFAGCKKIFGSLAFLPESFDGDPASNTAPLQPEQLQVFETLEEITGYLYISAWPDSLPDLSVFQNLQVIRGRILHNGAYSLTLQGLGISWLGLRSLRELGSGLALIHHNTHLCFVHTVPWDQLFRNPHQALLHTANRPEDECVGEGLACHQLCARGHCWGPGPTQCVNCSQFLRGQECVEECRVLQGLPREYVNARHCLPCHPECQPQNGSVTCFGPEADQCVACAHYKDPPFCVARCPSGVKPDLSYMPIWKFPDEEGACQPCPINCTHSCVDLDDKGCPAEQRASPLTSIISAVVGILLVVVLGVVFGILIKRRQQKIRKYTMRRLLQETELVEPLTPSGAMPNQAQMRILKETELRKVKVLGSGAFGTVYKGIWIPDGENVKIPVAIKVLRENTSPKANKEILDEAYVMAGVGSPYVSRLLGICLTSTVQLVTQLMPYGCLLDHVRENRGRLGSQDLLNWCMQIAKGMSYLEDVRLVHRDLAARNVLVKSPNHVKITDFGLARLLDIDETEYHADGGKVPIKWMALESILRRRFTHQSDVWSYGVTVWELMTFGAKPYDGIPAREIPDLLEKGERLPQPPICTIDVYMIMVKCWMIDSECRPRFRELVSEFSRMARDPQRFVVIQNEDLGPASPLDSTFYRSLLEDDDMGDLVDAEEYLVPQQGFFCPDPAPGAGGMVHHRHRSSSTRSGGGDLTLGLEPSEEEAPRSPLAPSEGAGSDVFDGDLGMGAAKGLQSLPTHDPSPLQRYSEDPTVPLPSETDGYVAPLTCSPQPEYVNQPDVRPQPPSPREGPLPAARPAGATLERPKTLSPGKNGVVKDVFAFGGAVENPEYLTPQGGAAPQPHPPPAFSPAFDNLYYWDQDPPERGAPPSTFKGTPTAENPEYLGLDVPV

SMILES | IC50 (Ba/F3 ERBB2 YVMA; [3]) [nM] | IC50 [1] [nM] | IC50 (Ba/F3 ERBB2 YVMA; [4]) [nM] | IC50 [2] [nM] | IC50 (Ba/F3 ERBB2 YVMA; [5]) [nM]
Cc1cc(Nc2ncnc3cc4c(nc23)N2CCCN(C(=O)/C=C/CN(C)C)C(CO4)C2)ccc1Oc1ccn2ncnc2c1 (single isomer, unassigned) [Example S55, Enantiomer 1, (E)-1-(4-((4-([1,2,4]triazolo[1,5-a]pyridin-7-yloxy)-3-methylphenyl)amino)-8,9,11,12-tetrahydro-6,11-methanopyrimido[4′,5′:5,6]pyrido[3,2-b][1,4,8]oxadiazecin-10 (7H)-yl)-4-(dimethylamino)but-2-en-1-one Enantiomer 1] | 5.88 | > 10000 | – | – | –
Cc1cc(Nc2ncnc3cc4c(nc23)N2CCCN(C(=O)/C=C/CN(C)C)C(CO4)C2)ccc1Oc1ccn2ncnc2c1 (single isomer, unassigned) [Example S55, Enantiomer 2, (E)-1-(4-((4-([1,2,4]triazolo[1,5-a]pyridin-7-yloxy)-3-methylphenyl)amino)-8,9,11,12-tetrahydro-6,11-methanopyrimido[4′,5′:5,6]pyrido[3,2-b][1,4,8]oxadiazecin-10 (7H)-yl)-4-(dimethylamino)but-2-en-1-one Enantiomer 2] | > 500 | > 10000 | – | – | –
C=CC(=O)N1CCN2CC1COc1cc3ncnc(Nc4ccc(Oc5ccn6ncnc6c5)c(C)c4)c3nc12 (stereo in doubt) [Compound 1, 1-((10S)-4-((4-([1,2,4]triazolo[1,5-a]pyridin-7-yloxy)-3-methylphenyl)amino)-7,8,10,11-tetrahydro-9H-6,10-methanopyrimido[4′,5′:5,6]pyrido[3,2-b][1,4,7]oxadiazonin-9-yl)prop-2-en-1-one] | – | 450 | 7.77 | 9.77 | –
C=CC(=O)N1CCN2CC1COc1cc3ncnc(Nc4ccc(Oc5ccn6ncnc6c5)c(C)c4)c3nc12 (stereo in doubt) [Compound 2, 1-((10R)-4-((4-([1,2,4]triazolo[1,5-a]pyridin-7-yloxy)-3-methylphenyl)amino)-7,8,10,11-tetrahydro-9H-6,10-methanopyrimido[4′,5′:5,6]pyrido[3,2-b][1,4,7]oxadiazonin-9-yl)prop-2-en-1-one] | – | > 10000 | 116 | 422 | –
C=CC(=O)N1CCN2CC1COc1cc3ncnc(Nc4ccc(Oc5ccc6c(c5)ncn6C)c(C)c4)c3cc12 (stereo in doubt) [Compound 3, 1-((10S)-4-((3-methyl-4-((1-methyl-1H-benzo[d]imidazol-5-yl)oxy)phenyl)amino)-7,8,10,11-tetrahydro-9H-6,10-methano[1,4,7]oxadiazonino[3,2-g]quinazolin-9-yl)prop-2-en-1-one] | – | 1470 | 18 | 28.3 | –
C=CC(=O)N1CCN2CC1COc1cc3ncnc(Nc4ccc(Oc5ccn6ncnc6c5)c(C)c4)c3cc12 (stereo in doubt) [Compound 4, 1-((10S)-4-((4-([1,2,4]triazolo[1,5-a]pyridin-7-yloxy)-3-methylphenyl)amino)-7,8,10,11-tetrahydro-9H-6,10-methano[1,4,7]oxadiazonino[3,2-g]quinazolin-9-yl)prop-2-en-1-one] | – | 1860 | 8.63 | 7.36 | –
C=CC(=O)N1CCN2CC1COc1cc3ncnc(Nc4ccc(Oc5ccn6ncnc6c5)c(C)c4)c3cc12 (stereo in doubt) [Compound 5, 1-((10R)-4-((4-([1,2,4]triazolo[1,5-a]pyridin-7-yloxy)-3-methylphenyl)amino)-7,8,10,11-tetrahydro-9H-6,10-methano[1,4,7]oxadiazonino[3,2-g]quinazolin-9-yl)prop-2-en-1-one] | – | > 10000 | 304 | 1200 | –
Cc1cc(Nc2ncnc3cc4c(cc23)N2CCN(C(=O)/C=C/CN(C)C)C(CO4)C2)ccc1Oc1ccn2ncnc2c1 (stereo in doubt) [Compound 8, (E)-1-((10R)-4-((4-([1,2,4]triazolo[1,5-a]pyridin-7-yloxy)-3-methylphenyl)amino)-7,8,10,11-tetrahydro-9H-6,10-methano[1,4,7]oxadiazonino[3,2-g]quinazolin-9-yl)-4-(dimethylamino)but-2-en-1-one] | – | > 10000 | – | 547 | > 500
C=CC(=O)N1CCN2CC1COc1cc3ncnc(Nc4ccc(Oc5ccc6c(c5)ncn6C)c(C)c4)c3nc12 (stereo in doubt) [Compound 14, 1-((10S)-4-((3-methyl-4-((1-methyl-1H-benzo[d]imidazol-5-yl)oxy)phenyl)amino)-7,8,10,11-tetrahydro-9H-6,10-methanopyrimido[4′,5′:5,6]pyrido[3,2-b][1,4,7]oxadiazonin-9-yl)prop-2-en-1-one] | – | 532 | 21.6 | 43.8 | –
CC#CC(=O)N1CCN2CC1COc1cc3ncnc(Nc4ccc(Oc5ccn6ncnc6c5)c(C)c4)c3cc12 (stereo in doubt) [Compound 17, 1-((10R)-4-((4-([1,2,4]triazolo[1,5-a]pyridin-7-yloxy)-3-methylphenyl)amino)-7,8,10,11-tetrahydro-9H-6,10-methano[1,4,7]oxadiazonino[3,2-g]quinazolin-9-yl)but-2-yn-1-one] | – | > 10000 | – | 1050 | > 500
C=CC(=O)N1CCN2CC1COc1cc3ncnc(Nc4ccc(Oc5ccc(C)nc5)c(C)c4)c3nc12 (stereo in doubt) [Compound 20, 1-((10S)-4-((3-methyl-4-((6-methylpyridin-3-yl)oxy)phenyl)amino)-7,8,10,11-tetrahydro-9H-6,10-methanopyrimido[4′,5′:5,6]pyrido[3,2-b][1,4,7]oxadiazonin-9-yl)prop-2-en-1-one] | – | 192 | 5.28 | 21.1 | –
C=CC(=O)N1CCN2CC1COc1cc3ncnc(Nc4ccc(Oc5ccc(CC)nc5)c(C)c4)c3nc12 (stereo in doubt) [Compound 22, 1-((10S)-4-((4-((6-ethylpyridin-3-yl)oxy)-3-methylphenyl)amino)-7,8,10,11-tetrahydro-9H-6,10-methanopyrimido[4′,5′:5,6]pyrido[3,2-b][1,4,7]oxadiazonin-9-yl)prop-2-en-1-one] | – | 684 | 56.1 | 70 | –
Cc1cc(Nc2ncnc3cc4c(nc23)N2CCN(C(=O)/C=C/CN3CCC3)C(CO4)C2)ccc1Oc1ccn2ncnc2c1 (stereo in doubt) [Compound 26, (E)-1-((10S)-4-((4-([1,2,4]triazolo[1,5-a]pyridin-7-yloxy)-3-methylphenyl)amino)-7,8,10,11-tetrahydro-9H-6,10-methanopyrimido[4′,5′:5,6]pyrido[3,2-b][1,4,7]oxadiazonin-9-yl)-4-(azetidin-1-yl)but-2-en-1-one] | – | > 10000 | 24.9 | 41.1 | –
Cc1cc(Nc2ncnc3cc4c(nc23)N2CCN(C(=O)/C=C/[C@H](C)N(C)C)C(CO4)C2)ccc1Oc1ccn2ncnc2c1 (stereo in doubt) [Compound 30, (4S,E)-1-((10S)-4-((4-([1,2,4]triazolo[1,5-a]pyridin-7-yloxy)-3-methylphenyl)amino)-7,8,10,11-tetrahydro-9H-6,10-methanopyrimido[4′,5′:5,6]pyrido[3,2-b][1,4,7]oxadiazonin-9-yl)-4-(dimethylamino)pent-2-en-1-one] | – | > 10000 | – | 10.6 | 10.5
C=CC(=O)N1CCN2CC1COc1cc3ncnc(Nc4ccc(Oc5ccn6ccnc6c5)c(C)c4)c3nc12 (stereo in doubt) [Compound 33, 1-((10S)-4-((4-(imidazo[1,2-a]pyridin-7-yloxy)-3-methylphenyl)amino)-7,8,10,11-tetrahydro-9H-6,10-methanopyrimido[4′,5′:5,6]pyrido[3,2-b][1,4,7]oxadiazonin-9-yl)prop-2-en-1-one] | – | 164 | 12 | 16.8 | –
